Patent US9056847B2, “Activity based probes (ABPs) interacting with glycosidases” (ACADEMISCH MEDISCH CENTRUM BIJ UNIVERSITEIT VAN AMSTERDAM, priority 2010, dated 2015)

Target: GBA1 (Homo sapiens (Human), UniProt P04062)
Assay: Kinetic constants of GBA1 inhibition (Table 2)
Assay type: biochemical
Settings: Table 2 kinetic constants

Chain of GBA1 (P04062 40-536): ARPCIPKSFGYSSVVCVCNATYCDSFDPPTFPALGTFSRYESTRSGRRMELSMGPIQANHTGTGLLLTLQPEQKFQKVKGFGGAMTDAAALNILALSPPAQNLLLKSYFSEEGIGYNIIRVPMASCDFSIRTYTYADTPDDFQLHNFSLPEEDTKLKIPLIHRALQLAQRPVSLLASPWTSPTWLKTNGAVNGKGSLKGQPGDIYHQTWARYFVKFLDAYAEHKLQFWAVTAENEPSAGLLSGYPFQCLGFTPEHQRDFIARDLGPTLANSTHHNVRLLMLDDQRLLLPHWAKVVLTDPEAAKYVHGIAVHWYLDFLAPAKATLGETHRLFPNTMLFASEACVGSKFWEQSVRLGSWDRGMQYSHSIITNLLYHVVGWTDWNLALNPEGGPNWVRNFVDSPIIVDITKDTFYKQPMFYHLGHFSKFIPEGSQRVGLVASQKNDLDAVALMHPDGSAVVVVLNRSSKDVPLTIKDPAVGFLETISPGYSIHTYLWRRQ

Compound [N-]=[N+]=NC[C@@H]1[C@@H](O)[C@H](O)[C@@H](O)[C@@H]2O[C@H]12 [KY170, (2S,3R,4S,5S)-8-azido-8-deoxy-cyclophellitol] has a ki of 0.0237 min⁻¹.
